Assay results published in US20180325933A1, “FOOD INTAKE, BODY WEIGHT AND GLUCOSE METABOLISM REGULATION BY MODULATION OF P2Y6 RECEPTOR SIGNALING” (priority 2014, published 2018).
Blank lines part the entries; values can stand above or below the compound they belong to. No end group written: not given here.

Columns and labels:
P2Y6 = assay: Food intake after icv UDP or ghrelin with or without P2Y6 antagonist; format: in vivo, mice
From the text: To further elucidate the specific contribution of P2Y6-mediated signaling in UDP-dependent activation of food intake, the inventors took a pharmacological approach.
Data are presented as mean±SEM, *p<0.05 (A-B) and as boxplots generated according to the “Tukey method” (mean: “+”, median: horizontal line) (F). *p<0.05, **p<0.01, ***p<0.001 as compared to vehicle or control.

AgRPCre mice = assay: Food intake with pharmacogenetic (hM4D/CNO) inhibition of AgRP cells; format: in vivo; settings: icv 30 μM UDP
From the text: To directly assess, whether the ability of centrally applied UDP to activate feeding depends on AgRP-cell activation, the inventors investigated the effect of centrally administered UDP in mice, which allow for pharmacogenetic inhibition of AgRP cells. To this end, the inventors injected AgRPCre mice bilaterally into the ARH with an AAV, which co-expresses in a Cre-dependent manner the inhibtory DREADD-channel hM4D and mCherry.
FIG. 5: (A) Representative microphotographs of mCherry immunostainng in control and AgRP^Cre mice injected bilaterally in the arcuate nucleus (ARH) with Cre-dependent rAAV-hSyn-DIO-hM4D(Gi)-mCherry (mCherry, red; DAPI counterstaining, blue). Scale bar: 100 μm. V3, third ventricle. (B) Food intake measurement in virus-injected AgRP^Cre mice or control wild type litter mates. Mice received CNO injections (0.3 mg/kgBW) 15 minutes prior to icy administration of 30 μM UDP or vehicle (Saline) (n=6 vs 8 vs 5 vs 5). Data are presented as mean±SEM, **p<0.01, ***p<0.001 as compare to vehicle.

AgRP neurons = assay: Electrophysiological recordings from AgRP-neurons; format: cell-based, AgRPtdTomato mice
From the text: Next the inventors aimed to further directly support the notion, that the P2Y6 agonist UDP can modulate the activity of AgRP-expressing neurons in the ARH. Therefore, the inventors performed electrophysiological recordings from transgenic mice which express red tomato protein under control of the AgRP promoter through Cre-loxP-mediated recombination in (B6; 129S6-Gt(ROSA)26Sortm9(CAG-tdTomato)Hze/J) mice (AgRPtdTomato) (FIGS. 4B and 4C). […] Collectively, these experiments indicate that orexigenic AgRP/NPY-coexpressing neurons in the ARH not only express the UDP receptor P2Y6 but that they are directly activated following UDP application both in vitro and in vivo.
Having defined that the food intake-promoting activity of UDP is mediated through P2Y6-dependent signaling, the inventors aimed to assess whether also UDP's ability to activate AgRP-neuron firing depends on functional P2Y6 signaling. To this end, the inventors performed electrophysiological recordings from genetically identified AgRP-neurons in AgRPtdTomato mice. […] Thus, not only UDP-induced activation of feeding but also UDP-stimulated activation of AgRP-neurons critically depends on functional P2Y6 signaling.
FIG. 4: (A) Confocal images and quantitative comparison of ARH cFos immunoreactive cells in NPY-GFP mice after intracerebroventricular administration of vehicle (saline) or 30 μM UDP (n=3 vs. 4). (B) Recording of an AgRPtdTomato neuron showing the increase in action potential frequency in response to the application of 3 μM UDP. […] (C) Identification of a recorded neuron by antibody staining against tdTomato (red) and a biocytin backfill of the recorded neuron (green). (D) Overall responsiveness to 3 μM UDP of the recorded AgRP neuron population (n=11 in total: 4 non-responsive neurons vs 7 responsive). (E) Quantification of action potential (AP) frequency (n=11). Grey circles mark single recordings responding with a significant increase in AP frequency, open circles are non-responsive neurons. All recordings have been conducted in synaptically isolated neurons. Scale bars: A, 50 μm; B, 100 μm and C, […] and […] in the magnifications, respectively. V3, third ventricle. Data are presented as mean±SEM, *p<0.05 (A) and as boxplots generated according to the “Tukey method” (mean: “+” median: horizontal line) (E). *p<0.05.
FIG. 6: Food intake measurement after intracerebroventricular (icv) administration of (A) vehicle (0.1% DMSO), 1 μM of the P2Y6-specific antagonist MRS […] or co-icv of 30 μM UDP and 1 μM MRS 2578 (n=10vs11vs14vs12), or (B) vehicle (0.1% DMSO), 1 μM MRS 2578, 2 μg ghrelin or co-icv of 2 μg ghrelin and 1 μM MRS 2578 (n=13vs13vs14vs14). (C) Original traces showing the action potential firing during the application of MRS 2578 and during the application of 3 μM UDP in the presence of MRS 2578. (D) Quantification of action potential frequency (AP) (n=12). Data are presented as mean±SEM, *p<0.05 (A-B) and as boxplots generated according to the “Tukey method” (mean: “+”, median: horizontal line) […]. *p<0.05, **p<0.01, ***p<0.001 as compared to vehicle or control.

[1] = system: hypothalamic cell line (immortalized AgRP-neurons); assay: ERK phosphorylation in hypothalamic cell line (immunoblot); format: cell-based; settings: 1 μM UDP
Procedure: (§1) Having identified a restricted domain of P2Y6 expression in neurons of the ARH, the inventors next investigated whether intracerebroventricular (icv) application of the P2Y6 agonist UDP modulates activation of ARH neurons. To this end, C57BL/6 N control mice were implanted with icy cannulas in the lateral ventricle. Following icy administration of either vehicle (i.e. saline) or 30 μM UDP, brains were processed for immunochemistry with an antibody, which detects the immediate early gene product cFos. […] Since cFos activation can occur either directly in the respective brain area or indirectly via trans-synaptic activation of cells located in projecting areas of directly activated neurons, the inventors investigated the direct effect of UDP on its P2Y6. […] Therefore, the inventors also used pERK as a direct read-out of UDP action and the inventors assessed pERK immunoreactivity in the arcuate nucleus following icy UDP application. […]
(§2) FIG. 3: Confocal images and quantification comparison of (A) cFos- and (B) pERK-immunoreactive cells in the arcuate nucleus (ARH) of mice after intracerebroventricular administration of vehicle (saline) or 30 μM UDP (ncFos=7vs9; npERK=5vs6). […] (C) Quantification and representative immunoblots of phosphorylated and total ERK in hypothalamic cell lines after incubation with vehicle (saline) or 1 μM UDP (n=11vs12, from 3 independent experiments). […]

[2] = system: wild type mice fed a normal chow diet; assay: Spontaneous food intake after intracerebroventricular (ICV) administration; format: in vivo
Procedure: To explore whether UDP plays a direct role on the central regulation of feeding behavior, the effect of intracerebroventricular administration (ICV) of UDP on spontaneous food intake in wild type mice fed with a normal chow diet was measured. Therefore, mice were anesthetized using ketamine/dexmedetomidine. Guide cannulas (26 gauges) were stereotaxically inserted into the lateral ventricle (bregma −0.2 mm, midline 1.0 mm, dorsal surface −2.1 mm). Animals were allowed to recover for one week prior to experiments.
Prior to the onset of the dark phase, mice acutely received 2 μL ICV administration of UDP (1 μM, 10 μM and 30 μM; Sigma-Aldrich®), MRS 2578 (1 μM, 10 μM; Sigma-Aldrich®), or control solution (NaCl). Spontaneous food intake was measured 2 and 4 hours after ICV administration from pre-weighed portions of food dispensed from the food rack. […] UDP appears to be a strong orexigenic agent as administration of 30 μM UDP induces a 45% increase of spontaneous food intake.
FIG. 1: (A) Food intake measurement (depicted as food intake to body weight) after intracereborventricular (icv) administration of increasing doses of UDP (1 μM, 10 μM and 30 μM) or vehicle (saline) (n=26vs13vs11vs14). (B) Food intake measurement (depicted as food intake to body weight) after intracereborventricular (icv) administration of P2Y6 antagonist MRS2578 (1 μM and […]) or vehicle (saline) (n=9vs5vs5). Data are presented as mean±SEM. **p<0.01, ***p<0.001.

[3] = system: pERK-positive cells in the ARH; assay: pERK immunoreactivity in the arcuate nucleus after icv administration; format: in vivo, mice; settings: icv 30 μM UDP
Procedure: as §1, §2

NPY-neurons in the ARH = assay: cFos immunoreactivity of NPY-neurons in NPY-GFP mice after icv administration; format: in vivo; settings: icv 30 μM UDP; 20% following vehicle
From the text: Given that the ventromedial part of the ARH mainly contains AgRP/NPY neurons, the inventors next directly investigated the specific effect of P2Y6/UDP on those neurons. The inventors addressed whether icy application of UDP specifically activates NPY/AgRP-coexpressing neurons in the ARH. The inventors therefore repeated the UDP-induced cFos experiments in mice, which express GFP under control of the neuropeptide (NPY)-promotor (NPY-GFP-mice).
FIG. 4: (A) Confocal images and quantitative comparison of ARH cFos immunoreactive cells in NPY-GFP mice after intracerebroventricular administration of vehicle (saline) or 30 μM UDP (n=3 vs. 4). (B) Recording of an AgRPtdTomato neuron showing the increase in action potential frequency in response to the application of 3 μM UDP. […] (C) Identification of a recorded neuron by antibody staining against tdTomato (red) and a biocytin backfill of the recorded neuron (green). (D) Overall responsiveness to 3 μM UDP of the recorded AgRP neuron population (n=11 in total: 4 non-responsive neurons vs 7 responsive). (E) Quantification of action potential (AP) frequency (n=11). Grey circles mark single recordings responding with a significant increase in AP frequency, open circles are non-responsive neurons. All recordings have been conducted in synaptically isolated neurons. […]

[4] = system: cFos immunoreactive cells in the arcuate nucleus of the hypothalamus; assay: cFos immunoreactivity in the arcuate nucleus after icv administration; format: in vivo, C57BL/6 N mice; settings: icv 30 μM UDP versus vehicle (saline)
Procedure: as §1, §2

[5] = system: C57BL/6 N control animals; assay: Food intake after intraperitoneal uridine; format: in vivo, C57BL/6 N mice; settings: 50 mg/kgBW uridine i.p., 4 hours after application
Procedure: (§3) To directly address whether elevation of serum uridine concentrations—as observed in obesity—can lead to increased hypothalamic UDP synthesis, the inventors next injected C57BL/6 N control animals intraperitoneally with uridine.
(§4) FIG. 9: Effects of intraperitoneal injection of uridine (50 mg/kgBW) or vehicle (saline) in C57B16/N mice on (A) serum uridine (n=4-5 per group) and on (B) hypothalamic UDP contents (n=5 per group) 60 and 90 minutes post-injection as well on (C) food intake (n=15 per group). Data are presented as mean±SEM, *p<0.05, **p<0.01, ***p<0.001.

[6] = Serum uridine after intraperitoneal uridine; format: in vivo, C57BL/6 N mice; settings: 50 mg/kgBW uridine i.p.
Procedure: as §3, §4

[7] = Hypothalamic UDP content after intraperitoneal uridine; format: in vivo, C57BL/6 N mice; settings: 50 mg/kgBW uridine i.p., 90 minutes after application
Procedure: as §3, §4

[8] = system: P2Y1, P2Y2, P2Y4 or P2Y11 receptors; settings: cited from earlier work

Compound: O=c1ccn([C@@H]2O[C@H](COP(=O)(O)OP(=O)(O)O)[C@@H](O)[C@H]2O)c(=O)[nH]1 [UDP, uridine diphosphate]
increase of food intake (P2Y6; icv UDP alone): ≈ 50% | UDP's food intake stimulatory effect (AgRPCre mice; AAV-injected AgRPCre mice, CNO-mediated inhibition of AgRP-neurons): completely abolished | effect of AAV injection and CNO on UDP-induced food intake (AgRPCre mice; Cre-negative control animals, CNO 0.3 mg/kgBW): no effect | action potential frequency of AgRP neurons (AgRP neurons; 3 μM UDP): increased action potential frequency | number of responsive neurons in the recorded AgRP neuron population (AgRP neurons; 3 μM UDP, n=11 in total): 7 | proportion of AgRP-neurons sensitive to UDP (AgRP neurons; electrophysiology, 3 μM UDP): 60% | ERK-phosphorylation [1]: clearly increased ERK-phosphorylation | increase of spontaneous food intake ([2]; ICV 30 μM UDP): 45% | spontaneous food intake ([2]; ICV 2 μL, 1 μM, 10 μM and 30 μM, food intake measured 2 and 4 hours after ICV): increases food intake in a dose-dependent manner | number of pERK-positive cells in the ARH [3]: significantly increased the number of pERK-positive cells | proportion of NPY-neurons exhibiting cFos immunoreactivity (NPY-neurons in the ARH): 60% | increase in cFos immunoreactivity in the arcuate nucleus of the hypothalamus [4]: 2.5 fold

Compound: ghrelin: centrally applied ghrelin, used to increase feeding as specificity control (GSSFLSPEHQRVQQRKESKKPPAKLQPR; ends and bridges not checked; UniProt Q9UBU3 24-51, looked up)
feeding (P2Y6; icv 2 μg ghrelin): increased feeding to comparable extend as observed upon UDP injection

serum uridine concentrations ([6]; 90 minutes after injection): returned to baseline concentrations
Compound: O=c1ccn([C@@H]2O[C@H](CO)[C@@H](O)[C@H]2O)c(=O)[nH]1 [uridine]
food intake [5]: increased food intake significantly | serum uridine concentrations ([6]; 60 minutes post injection): rapid increase of serum uridine concentrations | hypothalamic UDP content [7]: elevation of hypothalamic UDP content

Compound: S=C=Nc1cccc(NC(=S)NCCCCNC(=S)Nc2cccc(N=C=S)c2)c1 [MRS2578, 1,4-Di[3-(3-isothiocyanatophenyl)thioureido]butane]
selectivity for P2Y6 receptor activity versus activity at P2Y1, P2Y2, P2Y4 or P2Y11 receptors [8]: selectively blocks P2Y6 receptor activity | effect on ghrelin's ability to increase food intake (P2Y6; co-icv 2 μg ghrelin and 1 μM MRS 2578): no effect | effect on UDP-induced increase of food intake (P2Y6; co-icv 30 μM UDP and 1 μM MRS 2578): completely abrogated | food intake, antagonist alone (P2Y6; icv 1 μM MRS 2578): does not modulate food intake by itself | effect on UDP's ability to reduce the membrane potential and activate action potential firing of AgRP-neurons (AgRP neurons; MRS 2578-preincubation, 3 μM UDP): abrogated | action potential frequency of AgRP-neurons, antagonist alone (AgRP neurons; MRS 2578 alone): no influence on action potential frequency | spontaneous food intake ([2]; ICV 2 μL MRS 2578 (1 μM, 10 μM)): decreases food intake
